In patent US4150970A, “Growth regulator for plants” (Board of Trustees of Michigan State University, priority 1977, dated 1979):
Converted amounts (≈) assume the structure as drawn.

Key:
Larker barley = assay: Single and multiple foliar applications on barley (Example XII); format: in vivo
Description: Tests were run, under the conditions above described, to determine the response of "Michigan 396" field corn and "Larker" barley to single and multiple foliar applications of triacontanol at […]. Plants were one week old at time of first treatment and 25 days old at time or harvest. Table XII states the test results.

[1] = tested on: Barley callus cell culture; assay: Growth of barley callus cell culture (Example XIX); format: cell-based, interspecific cross of Hordeum vulgare and Hordeum jubatum
Method: (§1) Cell cultures were separately grown in disposable petri dishes.
5. Barley (interspecific cross of Hordeum vulgare and Hordeum jubatum)
(§2) The cultures were grown on the basic medium of mineral salts described by Linsmaier and Skoog (Physiol. Plant, […] (1965)). Vitamins and hormones varied for each tissue (Table X-1) to maintain the tissues in an undifferentiated state. For all of the tissues inositol was 100 mg/liter and agar 1%. Sucrose was 3% for all but the bean which was 2%.
(§3) Callus was produced from pith for tobacco, potato and tomato. Bean callus was produced from hypocotyl sections and barley callus from immature ovarian tissue. Subcultures were maintained on the appropriate media.
(§4) Stock solutions of triacontanol were prepared at a concentration of 100 μg/ml. The solvent used was glass distilled benzene. The lower concentrations were obtained by serial dilutions. Treatments were applied to 4.5 cm Whatman #1 filter paper disks in 100 μl aliquots. Controls received 100 μl of glass distilled benzene. The solvent was evaporated for approximately 15 minutes and the filter papers were then placed on the agar medium.
(§5) Callus tissue was then broken into pieces of approximately the same size (10 mg) and placed in the petri dishes on the treated filter paper (one piece per dish). For experiments conducted in the light the intensity was approximately 2.0 microwatts/cm^2 -namometer. Fresh weight measurements were made after 12 days of growth.

oat first-internode = settings: published reports; cited from earlier work
tobacco callus = assay: Growth of tobacco callus, triacontanol and octocosanol (Example XIX, FIG. 6); format: cell-based, Nicotiana tabacum, var. Wisconsin 38; settings: 10 days; for growth over the control: four concentrations
Method: as §1
1. Haploid tobacco (Nicotiana tabacum, var. Wisconsin 38)
as §2, §3, §4, §5
A stock solution of octocosanol (CH3 (CH2)26 CH2 OH was prepared in the same manner as the triacontanol solutions above described.
The effect of four concentrations of triacontanol and octocosanol on tobacco callus was determined, using the materials and procedures above described in this Example. The dishes were tared and weighed at the end of 10 days. The results are illustrated in FIG. 6 of the drawings.

Mich. 396 Field Corn = assay: Single and multiple applications on field corn at two fertility levels (Example XIV); format: in vivo
Method: Tests were run to study the effect of single and multiple applications of triacontanol on the growth of "Mich. 396 Field Corn" grown at two Fertility Levels in a greenhouse soil. Plants were treated at 14 days after planting and were harvested 37 days after planting. The following results were obtained (Table XIV).

IR-8 rice seedlings = assay: Growth and water uptake of IR-8 rice seedlings (Example IV); format: in vivo; settings: for Dry Wt. per plant / Leaf Area per plant / Water Uptake per leaf area / Water Uptake per plant: 10 μg/liter
Method: Rice seed cv. IR-8, or Starbonnet was surface treated with 0.1 percent mercuric chloride and planted in 77 cc plastic cups containing vermiculite and watered with one-fourth Hoagland's nutrient solution containing 3 mM of nitrogen at pH 5.0. After 10 days, seedlings were transplanted to 220 cc specimen cups wrapped in aluminum foil and containing 180 cc of the same Hoagland's nutrient solution. Four seedlings were suspended in the solution with a sponge rubber disc. The plants were grown under a 8 h night at 25° C. and a 16 h day at 30° C. with 21 and 8 μwatts per cm^2 in the blue and red spectra respectively. In the test with varying light intensity the high light intensity was 30 13 and the low intensity was 15 and 8 μwatts per cm^2 for the blue and red spectra respectively. The nutrient solution was renewed every 2 or 3 days. After one week the plants were sorted for size and similar sized plants assigned to the same block for the experiment. Prior to the initiation of a test the plants in each cup were assigned treatment numbers by use of a random number table. […] Sixteen hours prior to a test the foil wrapped cups were tared, and filled with one-half Hoaglands solution containing 6 mM nitrogen. Eighteen μl of chloroform or chloroform containing 1.8 μg triacontanol were placed on 2 cm^2 of Whatman No. 1 filter papers, air dried and placed in the specimen cups. This concentration of 10 μg triacontanol/liter was used for all tests described in the following Examples except where specifically indicated to the contrary. Immediately prior to the test the cups were all brought up to 180 ml. including a set of cups without plants to measure evaporation.
Water uptake was measured by weighing the cups after removal of the plants and subtracting the tare and the water evaporated. For tests continued for more than one day, the solution used was measured every 3 days and new Hoagland's added and the pH maintained at 5.0 with sulfuric acid.
The plants were disected at harvest into shoots and roots. The expanded leaves were cut at the ligule and the newest leaf at the point it entered the sheath. The surface area of expanded leaves were measured using a Lambda Model LI-3000 planimeter. The plants were dried to constant weight in an oven at 100° C. and the roots, expanded leaves, and sheaths were weighed separately.
Four to 6 replicates were used in each experiment in a randomized complete block design. The data were submitted to analysis of variance. Means were compared by use of the L.S.D. except where there was only one degree of freedom for treatment. In these instances the F value from the analysis of variance was used for comparison of means.
To determine the effect of triacontanol on growth and water uptake of IR-8 rice seedlings, the seedlings were prepared as above explained. Alternate seedlings were treated with no triacontanol or with a concentration of 10 μg triacontanol per liter as above set forth. Leaf area, dry weight and water uptake were determined for each plant at 0 time and at 8, 24, 72 and 216 hour intervals.

Solubility = format: physicochemical
[2] = printed 10.0 g triacontanol, 12 days
[3] = 10 μg per liter, nutrient solution

## CCCCCCCCCCCCCCCCCCCCCCCCCCCCCCO [Triacontanol, 1-triacontanol]
Larker barley; treated at 7, 12 and 18 days
  Dry wt, Barley: 210 mg/shoot
Larker barley; treated at 7 and 12 days
  Dry wt, Barley: 206 mg/shoot
Larker barley; treated at 12 and 18 days
  Dry wt, Barley: 214 mg/shoot
Larker barley; treated at 7 days
  Dry wt, Barley: 205 mg/shoot
Larker barley; treated at 12 days
  Dry wt, Barley: 197 mg/shoot
Larker barley; treated at 18 days
  Dry wt, Barley: 193 mg/shoot
[1]; barley
  growth of in vitro cell cultures: significant increases in growth
[1]; [2]
  % of control: 167 % of control
  Fresh weight: 35.0
Oat first-internode
  growth, oat first-internode method: not active
Tobacco callus
  optimum concentration for growth: 0.1 μg per dish
Tobacco callus; listed as 1-triacontanol
  growth over the control: significant increases in growth
Tobacco callus; listed as triacontanol
  growth over the control: significant increases in growth over the control
Mich. 396 Field Corn; high fertility, 1 application
  Dry Weight: 2.032 g/plant
Mich. 396 Field Corn; high fertility, 5 applications
  Dry Weight: 1.913 g/plant
Mich. 396 Field Corn; low fertility, 1 application
  Dry Weight: 1.297 g/plant
Mich. 396 Field Corn; low fertility, 5 applications
  Dry Weight: 1.696 g/plant
IR-8 rice seedlings; [3]
  time within which dry weight of entire plant significantly increased: ≤ 3 days
  time within which leaf area significantly increased: ≤ 8 h
IR-8 rice seedlings; 8 hours
  Dry Wt. per plant: 53.4 mg
  Leaf Area per plant: 8.2 cm^2
  Water Uptake per leaf area: 0.25 ml/cm^2 leaf area
  Water Uptake per plant: 2.0 mL
IR-8 rice seedlings; 24 hours
  Dry Wt. per plant: 58.6 mg
  Leaf Area per plant: 9.0 cm^2
  Water Uptake per leaf area: 0.35 ml/cm^2 leaf area
  Water Uptake per plant: 3.2 mL
IR-8 rice seedlings; 72 hours
  Dry Wt. per plant: 81.7 mg
  Leaf Area per plant: 13.7 cm^2
  Water Uptake per leaf area: 1.34 ml/cm^2 leaf area
  Water Uptake per plant: 18.4 mL
IR-8 rice seedlings; 216 hours
  Dry Wt. per plant: 204.0 mg
  Leaf Area per plant: 22.4 cm^2
  Water Uptake per leaf area: 2.92 ml/cm^2 leaf area
  Water Uptake per plant: 65.5 mL
Solubility; alcohol
  solubility in alcohol, qualitative: soluble in alcohol
Solubility; ether and benzene
  solubility in ether and benzene, qualitative: very soluble in ether and benzene
Solubility; water
  solubility in water, qualitative: relatively water insoluble
Solubility; water, read-out: solubility limit in water
  solubility: ~0.3 µg/mL (≈ 0.684 µM)
